Experimental data reported in patent US20070009597A1, “Active substance combination comprising a compound with npy receptor affinity and a compound with 5-ht6 receptor affinity” (LABORATORIOS DEL DR. ESTEVE S.A., priority 2003, published 2007).
Read-outs that look alike come from different tables or passages of the source.

Molecular target: T1, recombinant human 5HT6 receptor (Homo sapiens, UniProt P50406)
T1 construct: purchased Receptor Biology; host or cells: HEK-293
Test: Binding to the 5HT6 serotonin receptor ([3H]-LSD, HEK-293 cell membranes)
Settings: for inhibition at 1 µM / % Inhibition 10^−6 M: 10^−6 M; for inhibition at 1 µM: read-out: % Inhibition 10^−6 M
Experimental: Binding to the 5HT6 Serotonin Receptor
The respective part of the literature descriptions is incorporated here by reference and form part of the disclosure. […] The assays are carried out in triplicate.

[1] = table 1f, compounds of general formula (If)
[2] = table 1c, compounds of general formula (Ic)
[3] = table 1h, compounds of general formula (Ih)
[4] = table 1e, compounds of general formula (Ie)
[5] = table 2b, compounds of general formula (Ib)
[6] = table 1d, compounds of general formula (Id)

T1 sequence (P50406 whole entry): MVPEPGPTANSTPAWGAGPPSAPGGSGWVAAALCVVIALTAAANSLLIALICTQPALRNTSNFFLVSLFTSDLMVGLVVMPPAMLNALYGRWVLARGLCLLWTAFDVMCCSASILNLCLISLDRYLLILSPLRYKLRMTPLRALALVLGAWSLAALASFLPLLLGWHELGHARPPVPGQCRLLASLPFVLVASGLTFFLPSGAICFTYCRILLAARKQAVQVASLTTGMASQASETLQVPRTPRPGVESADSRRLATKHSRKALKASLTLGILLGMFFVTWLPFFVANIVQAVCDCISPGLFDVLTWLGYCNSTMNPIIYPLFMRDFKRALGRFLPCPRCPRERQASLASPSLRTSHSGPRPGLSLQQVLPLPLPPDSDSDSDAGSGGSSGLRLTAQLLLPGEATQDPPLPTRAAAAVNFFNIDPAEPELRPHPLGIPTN

For Cc1c(S(=O)(=O)N2CCC(N3C(=O)OCc4ccccc43)CC2)sc2ccc(Cl)cc12 [Example 3b, 1-[1-(5-chloro-3-methyl-benzo[b]tiophene-2-sulfonyl)-piperidine-4-yl]-1,4-dihydro-benzo[d][1,3]oxazine-2-one], the Ki was 107 nM.

In the case of CN(C)CCn1ccc2ccc(NS(=O)(=O)c3c(Cl)nc4sccn34)cc21 [Example 4f, N-[1-(2-Dimethylaminoethyl)-1H-indol-6-yl]-6-chloroimidazo[2,1-b]thiazole-5-sulfonamide], the inhibition at 1 µM [1] is reported as 90.8% and the Ki [1] is reported as 55.2 nM.

In the case of O=C1OCc2ccccc2N1C1CCN(S(=O)(=O)c2cccc3cccnc23)CC1 [Example 5b], the Ki is reported as 152 nM.

Compound CCN(CC)CCc1c[nH]c2ccc(NS(=O)(=O)c3ccc4ccccc4c3)cc12 [Example 17c, N-[3-(2-diethylaminoethyl)-1H-indol-5-yl]naphthalene-2-sulphonamide] has a Ki [2] of 5.3 nM.

CN1CC=C(c2cn(S(=O)(=O)C3CCCCC3)c3ccc([N+](=O)[O-])cc23)CC1 [Example 1h, 1-cyclohexanesulfonyl-3-(1-methyl-1,2,3,6-tetrahydropyridine-4-yl)-5-nitro-1H-indole] showed an inhibition at 1 µM [3] of 59.8 ± 3%.

For CN(C)CCn1ccc2cc(NS(=O)(=O)c3cccc(Br)c3)ccc21 [Example 13e, N-[1-(2-dimethylaminoethyl)-1H-indole-5-yl]-3-bromobenzenesulfonamide], the Ki [4] was 82.5 nM.

CN(C)c1cccc2c(S(=O)(=O)N3CCC(N4C(=O)OCc5ccccc54)CC3)cccc12 [Example 8b, 1-[1-(5-Dimethylamino-naphthyl-1-sulfonyl)-piperidine-4-yl]-1,4-dihydro-benzo[d][1,3]oxazine-2-one] was tested, and the inhibition at 1 µM [5] was 68%.

For Cc1c(S(=O)(=O)Nc2cccc3c2ccn3CCN(C)C)sc2ccc(Cl)cc12 [Example 1d, N-[1-(2-dimethylaminoethyl)-1H-indole-4-yl]-5-chloro-3-methylbenzo[b]thiophene-2-sulfonamide], the inhibition at 1 µM [6] was 83.9%.

Cc1cccc2c1N(C1CCN(S(=O)(=O)c3cccc4cccnc34)CC1)C(=O)OC2 [Example 6b, 8-Methyl-1-[1-(quinolinyl-8-sulfonyl)-piperidine-4-yl]-1,4-dihydro-benzo[d][1,3]oxazine-2-one] gave a Ki [5] of 166 nM.

CN(C)CCn1ccc2c(NS(=O)(=O)c3ccc4ccccc4c3)cccc21 [Example 2d, N-[1-(2-dimethylaminoethyl)-1H-indole-4-yl]-naphtalene-2-sulfonamide] was tested, and the “% Inhibition 10^−6 M” value [6] was 104.3%.

CN1CC=C(c2cn(S(=O)(=O)C3CCCCC3)c3ccc(N)cc23)CC1 [Example 3h, 5-amino-1-cyclohexanesulfonyl-3-(1-methyl-1,2,3,6-tetrahydropyridine-4-yl)-1H-indole] gave a Ki [3] of 55.1 nM.

CN(C)CCn1ccc2cc(NS(=O)(=O)c3cccc4c(Cl)cccc34)ccc21 [Example 4e, N-[1-(2-dimethylaminoethyl)-1H-indole-5-yl]-5-chloronaphthalene-1-sulfonamide] showed a Ki [4] of 112 nM.

In the case of CN(C)CCn1ccc2cc(NS(=O)(=O)c3cc(Cl)cc(Cl)c3)ccc21 [Example 12e, N-[1-(2-dimethylaminoethyl)-1H-indole-5-yl]-3,5-dichlorobenzenesulfonamide], the Ki [4] is reported as 105 nM.

For CN1CCC(c2c[nH]c3ccc(NS(=O)(=O)c4ccc(Cl)s4)cc23)CC1 [Example 14c, N-[3-(1-methylpiperidin-4-yl)-1H-indol-5-yl]-5-chlorothiophene-2-sulphonamide], the “% Inhibition 10^−6 M” value [2] was 95.7 ± 3.4% and the Ki [2] was 24.3 nM.

With CN(C)CCn1ccc2ccc(NS(=O)(=O)c3ccc(Oc4ccccc4)cc3)cc21 [Example 7f, N-[1-(2-Dimethylaminoethyl)-1H-indol-6-yl]-4-phenoxybenzenesulfonamide] the “% Inhibition 10^−6 M” value [1] was 95.1% and the Ki [1] was 119 nM.

In the case of CN(C)CCn1ccc2cc(NS(=O)(=O)c3cc(Cl)c(Cl)s3)ccc21 [Example 20e, N-[1-(2-dimethylaminoethyl)-1H-indole-5-yl]-4,5-dichlorothiophene-2-sulfonamide], the Ki [4] is reported as 84.8 nM.
